Results from patent US8580834B2, “Small molecule modulators of hepatocyte growth factor (scatter factor) activity” (Angion Biomedica Corp., priority 2002, dated 2013).

Experiments:
HUVECs = assay: Nitric oxide production in HUVECs, DAF 2-DA fluorescence; assay type: cell-based, human; conditions: 24 hours
Procedure: c. […] HUVECs are incubated with either vehicle, HGF/SF, instant compounds, or SNAP for 24 hours, loaded with the nitric oxide-sensitive fluorescence indicator DAF 2-DA and imaged under a laser scanning confocal microscope.
HGF and compounds of the invention may exert their anti-apoptotic effects in part through stimulation of nitric oxide production. We incubated HUVECs with either HGF or instant compounds and measured NO production using the nitric oxide-sensitive fluorescence indicator DAF 2-DA. […] Without wishing to be bound to any particular theory, we propose that the anti-apoptotic activities of both HGF and compounds of the invention may be mediated by nitric oxide production.

[1] = MTT cell viability assay, adriamycin-induced apoptosis; assay type: cell-based; conditions: dog, MDCK cells, of untreated cells, read-out: cell viability, adriamycin alone
Excerpt: (§1) a. HGF/SF and instant compounds have significant anti-apoptotic activity in cultured cell lines.
(§2) Using the MTT cell viability assay we tested the ability of compounds of the invention to protect cells from adriamycin-induced apoptosis. […] Adriamycin alone decreased cell viability to 56% of untreated cells.

isolated aortic rings = assay: Aortic ring assay; assay type: cell-based, Sprague Dawley rats; conditions: instant compound or HGF (100 ng/ml), day 5
Excerpt: a. Aortic ring assay. Thoracic artery rings from rats are embedded in Matrigel and grown for 5 days in the presence or absence of HGF/SF or compounds of the invention. Treatment with compounds of the invention causes an increased outgrowth from the rings similar to that seen with HGF/SF.
Thoracic aortas from 100 gm Sprague Dawley rats are isolated under sterile conditions and cut into rings of approximately 0.8 to 1.0 mm in length. The rings are embedded in Matrigel in the bottom of 48 well culture plates and instant compound […] or HGF (100 ng/ml, as positive control) was added in […] of serum-free tissue culture medium (Human endothelial-SFM basal growth medium plus 1% bovine serum albumin). An inventive compound or HGF was replenished on day 4; on day 5, the rings were photographed and examined for outgrowths. […] Without wishing to be bound to any particular theory, we propose that inventive compounds are capable of activating proliferation of cells required for angiogenesis.

C57BL/6 mice = conditions: earlier studies with HGF; cited from earlier work
MDCK cells = assay: MTT cell viability assay, adriamycin-induced apoptosis; assay type: cell-based
Excerpt: as §1, §2

[2] = test system: human hepatic stellate cell line LX2; assay: Antifibrotic activity: collagen I mRNA in LX2 cells, real time PCR; assay type: cell-based; conditions: serum starved LX2 cells, 24 hours; HGF 100 ng/ml, compounds 12 to 24 ug/ml
Procedure: a. Antifibrotic Activity in Hepatic Stellate Cells. Serum starved (activated) LX2 cells (an immortalized human hepatic stellate cell line) that are treated with HGF/SF or a compound of the invention show a decrease in collagen I mRNA expression, as well as expression of other fibrotic marker genes, related to significant antifibrotic activity.
The antifibrotic effects of HGF and compounds of the invention in the immortalized human hepatic stellate cell line LX2 are determined. Serum starved LX2 cells are treated for 24 hours with HGF at 100 ng/ml and compounds of the invention at doses ranging from 12 to 24 ug/ml. RNA is then isolated and real time PCR was performed to evaluate changes in collagen I mRNA. […] Additional experiments to determine the effects of HGF and compounds on TGFb-1, bPDGF-R and MMP-1 mRNA are also performed to more completely characterize activities of these compounds which can contribute to their antifibrotic effects.

[3] = test system: NIH-3T3 cells transfected with c-met receptor; assay: Protection against adriamycin-induced apoptosis, c-met transfected NIH-3T3 cells, MTT assay; assay type: cell-based; conditions: pre-treated 48 hr with HGF (50 ng/ml) or compound (12 mg/ml), adriamycin (15 mM) 2 hr
Procedure: b. Protection from apoptosis in NIH-3T3 cells transfected with c-met receptor.
NIH3T3 cells were pre-treated with HGF (50 ng/ml) or compound (12 mg/ml) for 48 hr. Cells were then exposed to adriamycin (ADR) (15 mM) for 2 hr, and post-incubated for 48 hr before performing the MTT assay. […] There was no protection from apoptosis by either compound in non-transfected cells lacking the c-met receptor.

| Compound | nitric oxide production (DAF 2-DA fluorescence) (HUVECs) | viability [1] | nitric oxide production (DAF 2-DA fluorescence) (HUVECs; listed as HGF/SF) | endothelial cell outgrowth from aortic rings (isolated aortic rings) | vessel area (C57BL/6 mice) | cell viability after pretreatment, then adriamycin (MDCK cells; adriamycin-induced apoptosis) | cell viability, compound or HGF alone (MDCK cells; without adriamycin) | decrease in collagen I mRNA expression [2] | protection from adriamycin-induced apoptosis (MTT) [3] |
| --- | --- | --- | --- | --- | --- | --- | --- | --- | --- |
| CC(=O)N[C@@H](C(=O)O)C(C)(C)SN=O (racemic) [SNAP, reference compound] | significant increase in fluorescence | – | – | – | – | – | – | – | – |
| COc1cccc2c1C(=O)c1c(O)c3c(c(O)c1C2=O)C[C@@](O)(C(=O)CO)C[C@@H]3O[C@H]1C[C@H](N)[C@H](O)[C@H](C)O1 [Adriamycin, reference compound] | – | 56% | – | – | – | – | – | – | – |
| HGF: pleiotropic growth factor that stimulates cell growth, cell motility, morphogenesis and angiogenesis | stimulate nitric oxide production | – | significant increase in fluorescence | stimulated equivalent endothelial cell outgrowth | dose-dependently increases the vessel area | 94% | no effect on cell viability | 70% | protect the cells from adriamycin-induced apoptosis |
